From US12492181B2, “Gem-disubstituted piperidine melanocortin subtype-2 receptor (MC2R) antagonists and uses thereof” (Crinetics Pharmaceuticals, Inc., priority 2019, dated 2025)

The compounds below were run against T1, hMC2 receptor (crude hMC2R membranes from CRE-bla-CHO-K1 cells stably expressing hMC2 receptor and hMRAP accessory protein) (Homo sapiens, UniProt Q01718) (assay: hMC2 membrane binding assay ([125I]ACTH (1-39) Tyr23, SPA)). Settings: displacement of 0.2 nM [125I]ACTH (1-39) Tyr23 from hMC2R membranes, 1.5 hours at room temperature; read-out: MC2R binding potency.
T1 construct: crude membrane fractions
T1 sequence (Q01718 whole entry): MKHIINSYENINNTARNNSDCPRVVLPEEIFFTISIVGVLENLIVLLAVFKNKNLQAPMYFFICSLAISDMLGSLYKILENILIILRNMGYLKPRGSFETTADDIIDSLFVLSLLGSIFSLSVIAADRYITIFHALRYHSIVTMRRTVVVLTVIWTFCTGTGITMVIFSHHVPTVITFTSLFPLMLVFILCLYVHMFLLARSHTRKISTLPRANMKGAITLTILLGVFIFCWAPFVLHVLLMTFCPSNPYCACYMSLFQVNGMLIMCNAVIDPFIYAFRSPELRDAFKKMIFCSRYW
T1 sequence (Q8TCY5 whole entry partner): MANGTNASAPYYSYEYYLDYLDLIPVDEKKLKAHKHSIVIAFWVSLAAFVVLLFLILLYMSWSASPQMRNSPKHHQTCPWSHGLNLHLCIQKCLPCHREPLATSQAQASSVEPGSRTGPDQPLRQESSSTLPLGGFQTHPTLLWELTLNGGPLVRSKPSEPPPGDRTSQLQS
Description: Crude membrane fractions are prepared from CRE-bla-CHO-K1 cells stably expressing hMC2 receptor and hMRAP accessory protein (Thermo Fisher). The cells are grown to 85-100% confluence on standard tissue culture dishes in GlutaMax DMEM growth media (Gibco) with following additives: 10% dialyzed FBS (Gemini), 0.1 mM NEAA (Gibco), 25 mM HEPES (Gibco), 5 μg/mL blasticidin (Goldbio), 100 μg/mL zeocin (Invitrogen), 600 μg/mL hygromycin (Goldbio). To prepare membranes, cells are scraped and collected in 1× Dulbecco's phosphate buffered saline (Corning) and then pelleted at 1000 RPM's. The cell pellet is reconstituted in membrane preparation buffer (20 mM HEPES, 6 mM MgCl2 and 1 mM EGTA, protease inhibitor tablets (Pierce) adjusted to pH 7.4), homogenized using a dounce homogenizer, and the resulting membrane fraction is pelleted by centrifugation at 12,000 RPM's. The membrane pellet is resuspended in membrane preparation buffer, snap freezed and stored at −80° C. for later use.
Binding Assay for hMC2 Antagonists Protocol:
The hMC2 membrane binding assay utilizes the following components: radiolabel [^125I]ACTH (1-39) Tyr23 (PerkinElmer), wheatgerm agglutinin coated PVT SPA beads (PerkinElmer), crude hMC2R membranes, and compounds. Briefly hMC2R membranes are incubated with SPA beads in binding assay buffer (50 mM HEPES, 5 mM MgCl2, 1 mM CaCl2), 0.20% BSA, protease inhibitor tablets (Pierce) adjusted to pH7.4) prior to assay initiation. […] Assay plates are read using a Top Count NXT and Ki values for compounds are determined using a GraphPad Prism 6 non-linear regression analysis.
With `CN1CC[C@H]1CNC(=O)C1(c2ccc(-c3cccn3C)nc2)CCN(c2ccc(C(F)(F)F)cc2C#N)CC1` [Compound 1-241, 1-[2-cyano-4-(trifluoromethyl)phenyl]-4-[6-(1-methyl-1H-pyrrol-2-yl)pyridin-3-yl]-N-{[(2S)-1-methylazetidin-2-yl]methyl}piperidine-4-carboxamide] the Ki was under 10 nM.
`CN1CC[C@@H](NC(=O)C2(c3ccc(-c4cccc5cnn(C)c45)nc3)CCN(c3ccc(C(F)(F)F)cc3C#N)CC2)C1` [Compound 1-73, 1-[2-cyano-4-(trifluoromethyl)phenyl]-4-[6-(1-methyl-1H-indazol-7-yl)pyridin-3-yl]-N-[(3R)-1-methylpyrrolidin-3-yl]piperidine-4-carboxamide] gave a Ki of under 10 nM.
For `CCOc1ncccc1-c1ccc(C2(NC(=O)N3CC[C@H](NC)C3)CCN(c3ccc(C(F)(F)F)cc3C#N)CC2)cn1` [Compound 2-24, (3S)—N-{1-[2-cyano-4-(trifluoromethyl)phenyl]-4-{2′-ethoxy-[2,3′-bipyridin]-5-yl}piperidin-4-yl}-3-(methylamino)pyrrolidine-1-carboxamide], the Ki was under 10 nM.
`CN1CC[C@@H](NC(=O)C2(c3ccc(-c4cccc5c4OCC5)nc3)CCN(c3ccc(C(F)(F)F)cc3C#N)CC2)C1` [Compound 1-53, 1-[2-cyano-4-(trifluoromethyl)phenyl]-4-[6-(2,3-dihydro-1-benzofuran-7-yl)pyridin-3-yl]-N-[(3R)-1-methylpyrrolidin-3-yl]piperidine-4-carboxamide] was tested, and the Ki was 10 to 100 nM.
In the case of `CCOc1ncccc1-c1ccc(C2(C(=O)NCCN(C)C)CCN(c3ccc(C(F)(F)F)cc3Cl)CC2)cn1` [Compound 1-224, 1-[2-chloro-4-(trifluoromethyl)phenyl]-N-[2-(dimethylamino)ethyl]-4-{2′-ethoxy-[2,3′-bipyridin]-5-yl}piperidine-4-carboxamide], the Ki is reported as under 10 nM.
`CCOc1ncccc1-c1ccc(C2(NC(=O)C3CN(C)C3)CCN(c3ccc(C(F)(F)F)cc3C#N)CC2)cn1` [Compound 2-32, N-{1-[2-cyano-4-(trifluoromethyl)phenyl]-4-{2′-ethoxy-[2,3′-bipyridin]-5-yl}piperidin-4-yl}-1-methylazetidine-3-carboxamide] gave a Ki of under 10 nM.
`CCOc1ncccc1-c1ccc(C2(NC(=O)[C@H]3CCN(C)C3)CCN(c3ccc(Cl)cc3C#N)CC2)cn1` [Compound 2-39, (3S)—N-[1-(4-chloro-2-cyanophenyl)-4-{2′-ethoxy-[2,3′-bipyridin]-5-yl}piperidin-4-yl]-1-methylpyrrolidine-3-carboxamide] was tested, and the Ki was under 10 nM.
`CCOc1ncccc1-c1ccc(C2(C(=O)N[C@@H]3CCN(C)C3)CCN(c3ccc(C(F)(F)F)c(Cl)c3)CC2)cc1` [Compound 1-165, 1-[3-chloro-4-(trifluoromethyl)phenyl]-4-[4-(2-ethoxypyridin-3-yl)phenyl]-N-[(3R)-1-methylpyrrolidin-3-yl]piperidine-4-carboxamide] was tested, and the Ki was 10 to 100 nM.
In the case of `CCOc1ncccc1-c1ccc(C2(C(=O)N[C@H]3CCN(C)C3)CCN(c3ccccc3C#N)CC2)cn1` [Compound 1-32, 1-(2-cyanophenyl)-4-{2′-ethoxy-[2,3′-bipyridin]-5-yl}-N-[(3S)-1-methylpyrrolidin-3-yl]piperidine-4-carboxamide], the Ki is reported as 10 to 100 nM.
Work on `CN1CC[C@@H](C(=O)NC2(c3ccc(-c4cccn4C)nc3)CCN(c3ccc(C(F)(F)F)cc3C#N)CC2)C1` [Compound 2-47, (3R)—N-{1-[2-cyano-4-(trifluoromethyl)phenyl]-4-[6-(1-methyl-1H-pyrrol-2-yl)pyridin-3-yl]piperidin-4-yl}-1-methylpyrrolidine-3-carboxamide] yielded a Ki of under 10 nM.
For `COc1ncccc1-c1ccc(C2(NC(=O)C3CN(C)C3)CCN(c3ccc(C(F)(F)F)cc3C#N)CC2)cn1` [Compound 2-40, N-{1-[2-cyano-4-(trifluoromethyl)phenyl]-4-{2′-methoxy-[2,3′-bipyridin]-5-yl}piperidin-4-yl}-1-methylazetidine-3-carboxamide], the Ki was under 10 nM.
`CCOc1ccccc1-c1ccc(C2(C(=O)N[C@H]3CCN(C)C3)CCN(c3ccc(C(F)(F)F)cc3F)CC2)nn1` [Compound 1-174, 4-[6-(2-ethoxyphenyl)pyridazin-3-yl]-1-[2-fluoro-4-(trifluoromethyl)phenyl]-N-[(3S)-1-methylpyrrolidin-3-yl]piperidine-4-carboxamide] gave a Ki of under 10 nM.
For `CCn1nccc1-c1ccc(C2(C(=O)N[C@@H]3CCN(C)C3)CCN(c3ccc(C(F)(F)F)cc3C#N)CC2)cn1` [Compound 1-62, 1-[2-cyano-4-(trifluoromethyl)phenyl]-4-[6-(1-ethyl-1H-pyrazol-5-yl)pyridin-3-yl]-N-[(3R)-1-methylpyrrolidin-3-yl]piperidine-4-carboxamide], the Ki was under 10 nM.
With `COc1ncccc1-c1ccc(C2(C(=O)N[C@@H](C)CN(C)C)CCN(c3ccc(C(F)(F)F)cc3Cl)CC2)cn1` [Compound 1-296, 1-[2-chloro-4-(trifluoromethyl)phenyl]-N-[(2S)-1-(dimethylamino)propan-2-yl]-4-{2′-methoxy-[2,3′-bipyridin]-5-yl}piperidine-4-carboxamide] the Ki was under 10 nM.
`CN(C)CCNC(=O)C1(c2ccc(-c3cccn3C)nc2)CCN(c2ccc(C(F)(F)F)cc2C#N)CC1` [Compound 1-216, 1-[2-cyano-4-(trifluoromethyl)phenyl]-N-[2-(dimethylamino)ethyl]-4-[6-(1-methyl-1H-pyrrol-2-yl)pyridin-3-yl]piperidine-4-carboxamide] was tested, and the Ki was under 10 nM.
`CCOc1ncccc1-c1ncc(C2(C(=O)NCCNC)CCN(c3ccc(C(F)(F)F)cc3C#N)CC2)cc1F` [Compound 1-311, 1-[2-cyano-4-(trifluoromethyl)phenyl]-4-{2′-ethoxy-3-fluoro-[2,3′-bipyridin]-5-yl}-N-[2-(methylamino)ethyl]piperidine-4-carboxamide] showed a Ki of under 10 nM.
`CCOc1ncccc1-c1ccc(C2(C(=O)N[C@@H](C)CN(C)C)CCN(c3ccc(C(F)(F)F)cc3C#N)CC2)cn1` [Compound 1-313, 1-[2-cyano-4-(trifluoromethyl)phenyl]-N-[(2S)-1-(dimethylamino)propan-2-yl]-4-{2′-ethoxy-[2,3′-bipyridin]-5-yl}piperidine-4-carboxamide] showed a Ki of under 10 nM.
In the case of `CCOc1ccccc1-c1ccc(C2(C(=O)N[C@H]3CCN(C)C3)CCN(c3ccc(Cl)cc3Cl)CC2)cn1` [Compound 1-95, 1-(2,4-dichlorophenyl)-4-[6-(2-ethoxyphenyl)pyridin-3-yl]-N-[(3S)-1-methylpyrrolidin-3-yl]piperidine-4-carboxamide], the Ki is reported as under 10 nM.
For `COc1ccccc1-c1ccc(C2(NC(=O)[C@@H]3CCN(C)C3)CCN(c3ccc(C(F)(F)F)cc3C#N)CC2)cn1` [Compound 2-60, (3R)—N-{1-[2-cyano-4-(trifluoromethyl)phenyl]-4-[6-(2-methoxyphenyl)pyridin-3-yl]piperidin-4-yl}-1-methylpyrrolidine-3-carboxamide], the Ki was under 10 nM.
For `CCOc1ccccc1-c1ncc(C2(C(=O)NCCN(C)C)CCN(c3ccc(C(F)(F)F)cc3Cl)CC2)cc1F` [Compound 1-291, 1-[2-chloro-4-(trifluoromethyl)phenyl]-N-[2-(dimethylamino)ethyl]-4-[6-(2-ethoxyphenyl)-5-fluoropyridin-3-yl]piperidine-4-carboxamide], the Ki was under 10 nM.
Work on `CNCCNC(=O)C1(c2cnc(-c3ccccc3OC)c(F)c2)CCN(c2ccc(C(F)(F)F)cc2C#N)CC1` [Compound 1-196, 1-[2-cyano-4-(trifluoromethyl)phenyl]-4-[5-fluoro-6-(2-methoxyphenyl)pyridin-3-yl]-N-[2-(methylamino)ethyl]piperidine-4-carboxamide] yielded a Ki of under 10 nM.
With `COc1ccccc1-c1ncc(C2(C(=O)NCCN(C)C)CCN(c3ccc(C(F)(F)F)cc3C#N)CC2)cc1F` [Compound 1-198, 1-[2-cyano-4-(trifluoromethyl)phenyl]-N-[2-(dimethylamino)ethyl]-4-[5-fluoro-6-(2-methoxyphenyl)pyridin-3-yl]piperidine-4-carboxamide] the Ki was under 10 nM.
Compound `CCOc1ccccc1-c1ccc(C2(C(=O)NC3CN(C)C3)CCN(c3ccc(C(F)(F)F)cc3C#N)CC2)nn1` [Compound 1-136, 1-[2-cyano-4-(trifluoromethyl)phenyl]-4-[6-(2-ethoxyphenyl)pyridazin-3-yl]-N-(1-methylazetidin-3-yl)piperidine-4-carboxamide] has a Ki of under 10 nM.
Work on `CCOc1ccccc1-c1ccc(C2(C(=O)N[C@H]3CCN(C)C3)CCN(c3ccc(C(F)(F)F)cc3Cl)CC2)nn1` [Compound 1-175, 1-[2-chloro-4-(trifluoromethyl)phenyl]-4-[6-(2-ethoxyphenyl)pyridazin-3-yl]-N-[(3S)-1-methylpyrrolidin-3-yl]piperidine-4-carboxamide] yielded a Ki of under 10 nM.
For `Cc1occc1-c1ccc(C2(C(=O)N[C@H]3CCN(C)C3)CCN(c3ccc(C(F)(F)F)cc3C#N)CC2)cn1` [Compound 1-120, 1-[2-cyano-4-(trifluoromethyl)phenyl]-4-[6-(2-methylfuran-3-yl)pyridin-3-yl]-N-[(3S)-1-methylpyrrolidin-3-yl]piperidine-4-carboxamide], the Ki was under 10 nM.
